Data from patent US20260207572A1, “METHODS AND COMPOSITIONS FOR TREATMENT OF SUBJECTS WITH HEPATIC IMPAIRMENTS” (ELEVAR THERAPEUTICS, INC., priority 2022, published 2026).
Where two headings read alike, the source gives them in different places.

Key:
[1] = tested on: plasma protein; details: cited from earlier work
[2] = biological target: T1, CYP2C8 (Homo sapiens, UniProt P10632); assay: In vitro CYP phenotyping and metabolism study, recombinant CYP2C8; format: in vitro ADME
T1 sequence (P10632 1-490): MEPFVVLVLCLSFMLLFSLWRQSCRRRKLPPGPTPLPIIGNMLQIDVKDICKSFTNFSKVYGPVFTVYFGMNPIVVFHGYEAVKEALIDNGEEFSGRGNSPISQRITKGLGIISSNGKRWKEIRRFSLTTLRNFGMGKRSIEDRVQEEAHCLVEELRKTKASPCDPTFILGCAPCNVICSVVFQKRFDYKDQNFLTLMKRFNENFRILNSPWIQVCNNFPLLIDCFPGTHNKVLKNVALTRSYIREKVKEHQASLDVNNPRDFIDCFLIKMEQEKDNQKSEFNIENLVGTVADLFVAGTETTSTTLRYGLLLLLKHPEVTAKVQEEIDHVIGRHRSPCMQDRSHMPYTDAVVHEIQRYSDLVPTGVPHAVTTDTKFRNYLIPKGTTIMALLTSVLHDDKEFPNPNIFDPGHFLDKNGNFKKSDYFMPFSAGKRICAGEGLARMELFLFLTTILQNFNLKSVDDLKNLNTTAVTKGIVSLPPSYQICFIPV
Experimental: (§1) Recently, an in vitro cytochrome (CYP) phenotyping and metabolism study was performed.

[3] = biological target: CYP2D6 (Homo sapiens, UniProt P10635); assay: In vitro CYP phenotyping and metabolism study, recombinant CYP2D6; format: in vitro ADME
CYP2D6, sequence (P10635 whole entry): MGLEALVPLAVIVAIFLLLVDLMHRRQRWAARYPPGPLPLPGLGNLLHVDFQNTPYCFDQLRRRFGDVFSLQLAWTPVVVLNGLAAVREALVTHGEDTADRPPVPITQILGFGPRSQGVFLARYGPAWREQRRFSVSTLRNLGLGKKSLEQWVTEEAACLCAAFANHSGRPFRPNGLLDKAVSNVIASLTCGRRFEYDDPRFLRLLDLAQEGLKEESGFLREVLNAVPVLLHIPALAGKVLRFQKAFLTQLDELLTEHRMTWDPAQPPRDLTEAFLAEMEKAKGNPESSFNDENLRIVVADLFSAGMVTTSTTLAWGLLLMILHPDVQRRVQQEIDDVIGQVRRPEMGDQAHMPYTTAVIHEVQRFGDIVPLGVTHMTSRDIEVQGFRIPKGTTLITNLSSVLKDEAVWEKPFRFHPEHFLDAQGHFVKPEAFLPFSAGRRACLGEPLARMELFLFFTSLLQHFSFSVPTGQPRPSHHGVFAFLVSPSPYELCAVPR
Experimental: as §1

[4] = tested on: plasma protein; assay: Phase 1 study: unbound plasma concentration and fraction unbound (protein binding); format: in vivo, human; details: 4 h, 200 mg single oral dose; for fraction unbound at 4 h: human, plasma, po, 200 mg, read-out: Fraction Unbound, Arithmetic Mean
[5] = as above; format: in vivo, human; details: human, plasma, po, 200 mg, 200 mg single oral dose
[6] = Phase 1 study: safety and tolerability; format: in vivo, human
From the text: Safety was monitored through recording of adverse events (AEs), clinical laboratory evaluations (clinical chemistry, hematology, coagulation parameters, and urinalysis), vital sign measurements, 12-lead electrocardiograms (ECGs), and physical examination findings during the study.
Safety measures for this study included AEs, incidence of laboratory abnormalities (based on hematology, clinical chemistry, coagulation, and urinalysis test results), 12-lead ECG parameters, vital sign measurements, and physical examinations.
All adverse events and observed values from clinical laboratory evaluations, 12-lead ECGs, vital sign measurements, and physical examinations were listed and summarized descriptively. No inferential statistical analyses were planned for the safety data.
The condition of each subject was monitored throughout the study. Any AEs and remedial actions required were recorded. The nature, time of onset, duration, and severity were documented, together with the Investigator's opinion of the relationship to drug administration. Any clinically significant abnormalities found during the course of the study were followed up until they returned to normal or could be clinically explained.

[7] = biological target: CYP3A4 (Homo sapiens, UniProt P08684); assay: In vitro CYP phenotyping and metabolism study, recombinant CYP3A4; format: in vitro ADME
CYP3A4, sequence (P08684 whole entry): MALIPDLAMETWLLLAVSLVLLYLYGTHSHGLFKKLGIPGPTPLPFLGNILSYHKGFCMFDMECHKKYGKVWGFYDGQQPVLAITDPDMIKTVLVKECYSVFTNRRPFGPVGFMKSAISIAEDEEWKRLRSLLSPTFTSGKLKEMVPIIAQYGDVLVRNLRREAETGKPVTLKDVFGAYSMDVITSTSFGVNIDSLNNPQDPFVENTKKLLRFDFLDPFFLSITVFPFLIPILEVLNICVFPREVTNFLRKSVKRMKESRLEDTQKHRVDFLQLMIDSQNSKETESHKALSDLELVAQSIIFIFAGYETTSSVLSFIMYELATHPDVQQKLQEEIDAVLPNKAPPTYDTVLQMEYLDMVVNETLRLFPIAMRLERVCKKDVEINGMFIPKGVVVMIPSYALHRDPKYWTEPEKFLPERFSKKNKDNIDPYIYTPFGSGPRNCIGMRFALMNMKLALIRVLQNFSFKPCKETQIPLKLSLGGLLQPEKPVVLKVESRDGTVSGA
Experimental: as §1

[8] = biological target: T2, CYP1A2 (Homo sapiens, UniProt P05177); assay: In vitro CYP phenotyping and metabolism study, recombinant CYP1A2; format: in vitro ADME
T2 sequence (P05177 1-516): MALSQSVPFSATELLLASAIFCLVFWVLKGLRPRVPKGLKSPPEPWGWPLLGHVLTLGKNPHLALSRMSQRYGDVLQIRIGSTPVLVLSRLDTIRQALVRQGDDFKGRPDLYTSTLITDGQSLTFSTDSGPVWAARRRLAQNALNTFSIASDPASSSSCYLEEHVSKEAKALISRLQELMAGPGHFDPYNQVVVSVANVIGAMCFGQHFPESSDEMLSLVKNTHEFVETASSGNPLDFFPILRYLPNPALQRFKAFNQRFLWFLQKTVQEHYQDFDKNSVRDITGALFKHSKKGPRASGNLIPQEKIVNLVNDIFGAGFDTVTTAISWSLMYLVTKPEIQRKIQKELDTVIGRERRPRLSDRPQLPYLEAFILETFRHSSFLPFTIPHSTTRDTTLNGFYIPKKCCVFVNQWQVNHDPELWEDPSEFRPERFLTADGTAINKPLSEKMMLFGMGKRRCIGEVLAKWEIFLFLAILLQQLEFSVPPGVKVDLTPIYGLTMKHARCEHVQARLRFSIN
Experimental: as §1

[9] = biological target: CYP2C9 (Homo sapiens, UniProt P11712); assay: In vitro CYP phenotyping and metabolism study, recombinant CYP2C9; format: in vitro ADME
CYP2C9, sequence (P11712 whole entry): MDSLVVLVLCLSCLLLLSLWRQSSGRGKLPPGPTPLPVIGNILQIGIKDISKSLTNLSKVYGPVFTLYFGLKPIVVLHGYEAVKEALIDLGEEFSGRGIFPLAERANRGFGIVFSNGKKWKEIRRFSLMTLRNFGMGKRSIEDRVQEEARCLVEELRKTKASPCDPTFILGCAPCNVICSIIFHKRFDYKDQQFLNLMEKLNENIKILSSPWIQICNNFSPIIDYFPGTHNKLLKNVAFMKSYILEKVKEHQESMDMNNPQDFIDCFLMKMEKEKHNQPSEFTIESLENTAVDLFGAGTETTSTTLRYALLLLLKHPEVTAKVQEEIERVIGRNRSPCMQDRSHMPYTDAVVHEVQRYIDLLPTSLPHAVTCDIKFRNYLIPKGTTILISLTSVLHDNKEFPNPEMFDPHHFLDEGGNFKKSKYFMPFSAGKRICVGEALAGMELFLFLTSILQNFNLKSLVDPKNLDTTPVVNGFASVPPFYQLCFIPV
Experimental: as §1

[10] = biological target: CYP2C19 (Homo sapiens, UniProt P33261); assay: In vitro CYP phenotyping and metabolism study, recombinant CYP2C19; format: in vitro ADME
CYP2C19, sequence (P33261 whole entry): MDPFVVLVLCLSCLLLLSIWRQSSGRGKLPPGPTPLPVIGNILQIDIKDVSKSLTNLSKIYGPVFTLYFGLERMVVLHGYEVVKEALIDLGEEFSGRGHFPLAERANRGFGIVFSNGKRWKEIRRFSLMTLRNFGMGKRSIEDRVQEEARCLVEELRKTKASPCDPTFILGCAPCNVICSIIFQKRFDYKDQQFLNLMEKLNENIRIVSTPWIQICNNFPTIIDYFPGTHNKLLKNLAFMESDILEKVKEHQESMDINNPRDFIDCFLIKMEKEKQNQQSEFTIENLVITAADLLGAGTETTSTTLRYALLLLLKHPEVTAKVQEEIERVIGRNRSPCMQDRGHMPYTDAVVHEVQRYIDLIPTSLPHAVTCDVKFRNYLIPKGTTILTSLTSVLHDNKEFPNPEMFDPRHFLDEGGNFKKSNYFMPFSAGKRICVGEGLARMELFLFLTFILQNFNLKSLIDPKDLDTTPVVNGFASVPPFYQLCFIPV
Experimental: as §1

[11] = Mild Hepatic Impairment, read-out: Fraction Unbound, Geometric Mean
[12] = Mild Hepatic Impairment, read-out: Fraction Unbound, Median
[13] = Mild Hepatic Impairment, read-out: Unbound Concentration, Arithmetic Mean
[14] = Mild Hepatic Impairment, read-out: Unbound Concentration, Geometric Mean
[15] = Mild Hepatic Impairment, read-out: Unbound Concentration, Median
[16] = Moderate Hepatic Impairment, read-out: Fraction Unbound, Geometric Mean
[17] = Moderate Hepatic Impairment, read-out: Fraction Unbound, Median
[18] = Moderate Hepatic Impairment, read-out: Unbound Concentration, Arithmetic Mean
[19] = Moderate Hepatic Impairment, read-out: Unbound Concentration, Geometric Mean
[20] = Moderate Hepatic Impairment, read-out: Unbound Concentration, Median
[21] = Normal Hepatic Function, read-out: Fraction Unbound, Geometric Mean
[22] = Normal Hepatic Function, read-out: Fraction Unbound, Median
[23] = Normal Hepatic Function, read-out: Unbound Concentration, Arithmetic Mean
[24] = Normal Hepatic Function, read-out: Unbound Concentration, Geometric Mean
[25] = Normal Hepatic Function, read-out: Unbound Concentration, Median

SMILES: N#CC1(c2ccc(NC(=O)c3cccnc3NCc3ccncc3)cc2)CCCC1 [Rivoceranib, N-[4-(1-cyanocyclopentyl)phenyl]-2-{[(pyridin-4-yl)methyl]amino} pyridine-3-carboxamide]
- plasma protein binding [1]: 97%
- rivoceranib consumed at 60 minute incubation ([2]; CYP2C8): less than 10%
- % Remaining at 60 minute incubation ([2]; Recombinant CYP2C8, 5 μM): 103%
- CLINT ([2]; Recombinant CYP2C8, 5 μM): 0.037 μL/minunte/mg
- half-life at 5 µM ([2]; human, Recombinant CYP2C8, 5 μM, read-out: t½): 12.6 h
- rivoceranib consumed at 60 minute incubation ([3]; CYP2D6): more than 60%
- % Remaining at 60 minute incubation ([3]; Recombinant CYP2D6, 5 μM): 34.9%
- CLINT ([3]; Recombinant CYP2D6, 5 μM): 0.587 μL/minunte/mg
- half-life at 5 µM ([3]; human, Recombinant CYP2D6, 5 μM, read-out: t½): 0.787 h
- Fraction Unbound, Arithmetic Mean ([4]; Mild Hepatic Impairment): 2.39%
- fraction unbound at 4 h ([4]; Mild Hepatic Impairment): 0.0239 ± 0.00639
- fraction unbound at 4 h ([4]; Moderate Hepatic Impairment): 0.0425 ± 0.022
- fraction unbound at 4 h ([4]; Normal Hepatic Function): 0.0265 ± 0.0119
- fraction unbound at 4 h [5, 11]: 0.0232
- fraction unbound at 4 h [5, 12]: 0.0232
- concentration at 4 h [5, 13]: 3.78 ng/mL
- concentration at 4 h [5, 14]: 2.59 ng/mL
- concentration at 4 h [5, 15]: 2.37 ng/mL
- fraction unbound at 24 h ([5]; Mild Hepatic Impairment, read-out: Fraction Unbound, Arithmetic Mean): 0.0201
- fraction unbound at 24 h [5, 11]: 0.0191
- fraction unbound at 24 h [5, 12]: 0.0174
- concentration at 24 h [5, 13]: 0.63 ng/mL
- concentration at 24 h [5, 14]: 0.55 ng/mL
- concentration at 24 h [5, 15]: 0.65 ng/mL
- fraction unbound at 4 h [5, 16]: 0.0373
- fraction unbound at 4 h [5, 17]: 0.0419
- concentration at 4 h [5, 18]: 4.73 ng/mL
- concentration at 4 h [5, 19]: 4.52 ng/mL
- concentration at 4 h [5, 20]: 4.15 ng/mL
- fraction unbound at 24 h ([5]; Moderate Hepatic Impairment, read-out: Fraction Unbound, Arithmetic Mean): 0.022
- fraction unbound at 24 h [5, 16]: 0.021
- fraction unbound at 24 h [5, 17]: 0.021
- concentration at 24 h [5, 18]: 1.07 ng/mL
- concentration at 24 h [5, 19]: 0.82 ng/mL
- concentration at 24 h [5, 20]: 0.82 ng/mL
- fraction unbound at 4 h [5, 21]: 0.0243
- fraction unbound at 4 h [5, 22]: 0.0212
- concentration at 4 h [5, 23]: 4.44 ng/mL
- concentration at 4 h [5, 24]: 3.62 ng/mL
- concentration at 4 h [5, 25]: 3.76 ng/mL
- fraction unbound at 24 h ([5]; Normal Hepatic Function, read-out: Fraction Unbound, Arithmetic Mean): 0.0172
- fraction unbound at 24 h [5, 21]: 0.0168
- fraction unbound at 24 h [5, 22]: 0.0155
- concentration at 24 h [5, 23]: 0.73 ng/mL
- concentration at 24 h [5, 24]: 0.68 ng/mL
- concentration at 24 h [5, 25]: 0.69 ng/mL
- tolerability ([6]; 200 mg single dose (freebase), healthy subjects and subjects with mild and moderate hepatic impairment): well tolerated
- subjects with treatment-emergent adverse events (TEAEs) ([6]; 200 mg single dose, 27 subjects overall, both in the Mild hepatic impairment group): 2 (7.4%) subjects
- laboratory, ECG, physical examination abnormalities ([6]; 200 mg single dose, all groups): no clinically significant laboratory, ECG, or physical examinations abnormalities
- treatment emergent SAEs, TEAEs leading to discontinuation, deaths ([6]; 200 mg single dose, all groups): No treatment emergent serious adverse events (SAEs), TEAEs leading to discontinuation, or deaths
- rivoceranib consumed at 60 minute incubation ([7]; CYP3A4): more than 60%
- % Remaining at 60 minute incubation ([7]; Recombinant CYP3A4, 5 μM): 37.6%
- CLINT ([7]; Recombinant CYP3A4, 5 μM): 0.704 μL/minunte/mg
- half-life at 5 µM ([7]; human, Recombinant CYP3A4, 5 μM, read-out: t½): 0.657 h
- rivoceranib consumed at 60 minute incubation ([8]; CYP1A2): less than 10%
- % Remaining at 60 minute incubation ([8]; Recombinant CYP1A2, 5 μM): 94.7%
- CLINT ([8]; Recombinant CYP1A2, 5 μM): 0.041 μL/minunte/mg
- half-life at 5 µM ([8]; human, Recombinant CYP1A2, 5 μM, read-out: t½): 11.2 h
- rivoceranib consumed at 60 minute incubation ([9]; CYP2C9): less than 10%
- % Remaining at 60 minute incubation ([9]; Recombinant CYP2C9, 5 μM): 90.3%
- CLINT ([9]; Recombinant CYP2C9, 5 μM): 0.119 μL/minunte/mg
- half-life at 5 µM ([9]; human, Recombinant CYP2C9, 5 μM, read-out: t½): 3.9 h
- rivoceranib consumed at 60 minute incubation ([10]; CYP2C19): less than 10%
- % Remaining at 60 minute incubation ([10]; Recombinant CYP2C19, 5 μM): 98.9%
- CLINT ([10]; Recombinant CYP2C19, 5 μM): 0.057 μL/minunte/mg
- half-life at 5 µM ([10]; human, Recombinant CYP2C19, 5 μM, read-out: t½): 8.05 h
